# From PMC11213709, “De novo design of proteins housing excitonically coupled chlorophyll special pairs” (Nature Chemical Biology, 2024)
# Assays:
# Format in all cases: binding, synthetic construct
# [1] = target: T1, SP1; assay: X-ray crystal structure at […] Å; absorption titration (Kd1 […], Kd2 […]); fluorescence titration ([…])
# T1 construct: de novo designed C2-symmetric homodimer, two ZnPPaM per dimer
# [2] = target: T2, SP3; assay: CD titration (Kd1 […], Kd2 […]); absorption titration (Kd1 […], Kd2 […]); fluorescence titration ([…])
# T2 construct: de novo designed C2-symmetric homodimer, two ZnPPaM per dimer
# [3] = target: T3, SP2; assay: X-ray crystal structure at […] Å; CD titration (Kd1 […], Kd2 […]); absorption titration (Kd1 […], Kd2 […]); fluorescence titration ([…])
# T3 construct: de novo designed C2-symmetric homodimer, two ZnPPaM per dimer
smiles,measurement,setting,value
C=Cc1c(C)c2[n]3c1=CC1=NC(=Cc4c(C)c5c([n]4[Zn]3)C(=C3N=C(C=2)[C@@H](C)[C@@H]3CCC(=O)OC)[C@@H](C(=O)OC)C5=O)C(CC)=C1C [ZnPPaM],Kd,[1],290 nM
same,Kd,[2],800 nM
same,Kd,[3],300 nM
